Results published in ChEMBL document CHEMBL1130637, “Pyrrolnitrin and related pyrroles endowed with antibacterial activities against Mycobacterium tuberculosis” (1998).
Values after ≈ are worked out from the molar mass of the structure shown.

Experiments:
[1] = system: Mycolicibacterium smegmatis; assay: Antibacterial activity against Mycobacterium smegmatis CIP 103599.; format: functional
[2] = system: Mycobacterium gordonae; assay: Antimycobacterial activity against Mycobacterium gordonae CIP 6427; format: functional
[3] = system: Mycobacterium tuberculosis; assay: Antimycobacterial activity against Mycobacterium tuberculosis CIP 103471; format: functional
[4] = system: Mycobacterium avium; assay: Antimycobacterial activity against Mycobacterium avium CIP 103317; format: functional
[5] = system: Mycobacterium marinum; assay: Antimycobacterial activity against Mycobacterium marinum CIP 6423; format: functional
[6] = system: Vero; assay: In vitro cytotoxicity against VERO cells.; format: functional, Chlorocebus sabaeus
[7] = system: Mycobacterium marinum; assay: Compound was tested for anti-mycobacterial activity against Mycobacterium marinum CIP 6423.; format: functional
[8] = system: Mycobacterium avium; assay: Compound was tested for anti-mycobacterial activity against Mycobacterium avium CIP 103317; format: functional
[9] = system: Mycobacterium gordonae; assay: Compound was tested for anti-mycobacterial activity against Mycobacterium gordonae CIP 6427; format: functional
[10] = system: Mycobacterium tuberculosis; assay: Compound was tested for anti-mycobacterial activity against Mycobacterium tuberculosis CIP 103471; format: functional
[11] = system: Vero; assay: Compound was tested for cytotoxicity against VERO cells; format: functional, Chlorocebus sabaeus

| SMILES | MIC [1] | MIC [2] | MIC [3] | MIC [4] | MIC [5] | MTD50 [6] | MIC [7] | MIC [8] | MIC [9] | MIC [10] | MTD50 [11] |
| --- | --- | --- | --- | --- | --- | --- | --- | --- | --- | --- | --- |
| Cn1cc(-c2ccc(Cl)cc2Cl)c([N+](=O)[O-])c1 | > 16 mg/L | > 16 mg/L | > 16 mg/L | > 16 mg/L | > 16 mg/L |  |  |  |  |  |  |
| CN[C@@H]1[C@H](O[C@H]2[C@H](O[C@H]3[C@H](O)[C@@H](O)[C@H](N=C(N)N)[C@@H](O)[C@@H]3N=C(N)N)O[C@@H](C)[C@]2(O)C=O)O[C@@H](CO)[C@H](O)[C@H]1O [STREPTOMYCIN] | 8 mg/L (≈ 13.8 µM) | 16 mg/L (≈ 27.5 µM) | 0.5 mg/L (≈ 0.86 µM) | 8 mg/L (≈ 13.8 µM) | 32 mg/L (≈ 55 µM) | 128 µg/mL |  |  |  |  |  |
| NNC(=O)c1c[nH]cc1-c1ccc(Cl)cc1 | > 16 mg/L | > 16 mg/L | > 16 mg/L | > 16 mg/L | > 16 mg/L | 16 µg/mL |  |  |  |  |  |
| COc1ccc(-c2c[nH]cc2[N+](=O)[O-])c(Cl)c1 | > 16 mg/L | > 16 mg/L | > 16 mg/L | 16 mg/L (≈ 63.3 µM) | > 16 mg/L | 2 µg/mL |  |  |  |  |  |
| O=[N+]([O-])c1c[nH]cc1-c1cccc(Cl)c1 | > 16 mg/L | > 16 mg/L | > 16 mg/L | > 16 mg/L | > 16 mg/L |  |  |  |  |  |  |
| CCOC(=O)c1cn(Cc2ccccc2)cc1-c1ccc(OC)cc1 | > 16 mg/L | > 16 mg/L | 8 mg/L (≈ 23.9 µM) | > 16 mg/L | > 16 mg/L | 8 µg/mL |  |  |  |  |  |
| CCOC(=O)c1cn(C)cc1-c1ccc(Cl)cc1 | > 16 mg/L | > 16 mg/L | > 16 mg/L | > 16 mg/L | > 16 mg/L |  |  |  |  |  |  |
| O=[N+]([O-])c1c[nH]cc1-c1cccc(Cl)c1Cl | > 16 mg/L | > 16 mg/L | 16 mg/L (≈ 62.2 µM) | > 16 mg/L |  | 1 µg/mL | > 16 mg/L |  |  |  |  |
| O=[N+]([O-])c1c[nH]cc1-c1ccc(Cl)cc1Cl | > 16 mg/L | > 16 mg/L | 1 mg/L (≈ 3.89 µM) | 16 mg/L (≈ 62.2 µM) | > 16 mg/L | 1 µg/mL |  |  |  |  |  |
| CCOC(=O)c1cn(Cc2ccc(F)cc2)cc1-c1ccccc1 | > 16 mg/L | > 16 mg/L | > 16 mg/L | 16 mg/L (≈ 49.5 µM) | > 16 mg/L | 4 µg/mL |  |  |  |  |  |
| NC(=O)c1c[nH]cc1-c1ccc(Cl)cc1Cl | > 16 mg/L | > 16 mg/L | > 16 mg/L | 16 mg/L (≈ 62.7 µM) | > 16 mg/L | 0.125 µg/mL |  |  |  |  |  |
| NNC(=O)c1ccncc1 [ISONIAZID] | 64 mg/L (≈ 467 µM) | 32 mg/L (≈ 233 µM) | 0.25 mg/L (≈ 1.82 µM) | 32 mg/L (≈ 233 µM) | 16 mg/L (≈ 117 µM) | 32 µg/mL |  |  |  |  |  |
| O=[N+]([O-])c1c[nH]cc1-c1ccc(Cl)cc1 | > 16 mg/L | > 16 mg/L | > 16 mg/L | > 16 mg/L | > 16 mg/L |  |  |  |  |  |  |
| O=[N+]([O-])c1c[nH]cc1-c1ccc(Cl)c(Cl)c1 | > 16 mg/L | > 16 mg/L | 8 mg/L (≈ 31.1 µM) | 16 mg/L (≈ 62.2 µM) | > 16 mg/L | 2 µg/mL |  |  |  |  |  |
| O=[N+]([O-])c1c[nH]cc1-c1ccccc1Cl | > 16 mg/L | > 16 mg/L | > 16 mg/L | > 16 mg/L | > 16 mg/L |  |  |  |  |  |  |
| O=[N+]([O-])c1c[nH]cc1-c1cc(Cl)cc(Cl)c1 | > 16 mg/L | > 16 mg/L | 8 mg/L (≈ 31.1 µM) | 16 mg/L (≈ 62.2 µM) | > 16 mg/L | 1 µg/mL |  |  |  |  |  |
| Cn1cc(C(=O)O)c(-c2ccc(Cl)cc2)c1 | > 16 mg/L | > 16 mg/L | > 16 mg/L | 16 mg/L (≈ 67.9 µM) | > 16 mg/L |  |  |  |  |  |  |
| CCOC(=O)c1cn(Cc2ccc(F)cc2)cc1-c1ccc(OC)cc1 | > 16 mg/L | > 16 mg/L | 16 mg/L (≈ 45.3 µM) | > 16 mg/L | > 16 mg/L | 2 µg/mL |  |  |  |  |  |
| O=[N+]([O-])c1c[nH]cc1-c1c(Cl)cccc1Cl | > 16 mg/L | > 16 mg/L | > 16 mg/L | > 16 mg/L | > 16 mg/L |  |  |  |  |  |  |
| Cn1cc(-c2ccccc2Cl)c([N+](=O)[O-])c1 | > 16 mg/L | > 16 mg/L | > 16 mg/L | > 16 mg/L | > 16 mg/L |  |  |  |  |  |  |
| O=C(O)c1cn(Cc2ccc(Cl)cc2)cc1-c1ccc(Cl)cc1 | > 1 mg/L | > 16 mg/L | 16 mg/L (≈ 46.2 µM) | 16 mg/L (≈ 46.2 µM) | > 16 mg/L | 8 µg/mL |  |  |  |  |  |
| O=[N+]([O-])c1c(Cl)cccc1-c1c[nH]cc1Cl [PYRROLNITRIN] | 16 mg/L (≈ 62.2 µM) |  |  |  | > 16 mg/L | 8 µg/mL |  | 8 mg/L (≈ 31.1 µM) | > 16 mg/L | 4 mg/L (≈ 15.6 µM) |  |
| NC(=O)c1c[nH]cc1-c1ccc(Cl)cc1 | > 16 mg/L | > 16 mg/L | > 16 mg/L | > 16 mg/L | > 16 mg/L | 16 µg/mL |  |  |  |  |  |
| Cn1cc(-c2ccc(Cl)cc2)c([N+](=O)[O-])c1 | > 16 mg/L | > 16 mg/L | > 16 mg/L | > 16 mg/L | > 16 mg/L |  |  |  |  |  |  |
| CCOC(=O)c1cn(C)cc1-c1ccc(OC)cc1 | > 16 mg/L | > 16 mg/L |  | > 16 mg/L | > 16 mg/L |  |  |  |  | > 16 mg/L | 4 µg/mL |
| OCc1cn(Cc2ccccc2Cl)cc1-c1ccc(Cl)cc1 | > 16 mg/L | > 16 mg/L | 8 mg/L (≈ 24.1 µM) | > 16 mg/L | > 16 mg/L | 15 µg/mL |  |  |  |  |  |
| CCOC(=O)c1c[nH]cc1-c1ccc(Cl)cc1 | > 16 mg/L | > 16 mg/L | 16 mg/L (≈ 64.1 µM) | 4 mg/L (≈ 16 µM) | > 16 mg/L | 4 µg/mL |  |  |  |  |  |
| CCOC(=O)c1c[nH]cc1-c1ccc(Cl)cc1Cl | > 16 mg/L | > 16 mg/L | > 16 mg/L | > 16 mg/L | > 16 mg/L | 2 µg/mL |  |  |  |  |  |
| COc1ccc(-c2cn(C)cc2[N+](=O)[O-])c(Cl)c1 | > 16 mg/L | > 16 mg/L | > 16 mg/L | > 16 mg/L | > 16 mg/L | 2 µg/mL |  |  |  |  |  |
